Assay results from PubChem BioAssay AID1963846 (Molecular Pharmacology Branch, DTP, NCI, 2024).

Tested on: 454973-116-R2-J3-PDC complex spheroid viability
Assay: Anticancer human tumor 454973-116-R2-J3-PDC patient-derived pancreatic carcinoma cell line growth inhibition [POLQ]
Conditions: for IC50: curve of first compound; for viability, T/C: stronger effect = lower value
Summary of the method: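 Three-cell-type spheroids modelling solid tumor plus stroma served as the readout system; POL inhibitors were tested individually and in combination, concentration ranges set by clinical Cmax where known.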
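Also: spheroids exposed to drugs for seven days before measurement.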
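For viability, T/C in this document: percent viability relative to DMSO vehicle control wells taken as 100%.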

SMILES: CC[C@@]1(O)C(=O)OCc2c1cc1n(c2=O)Cc2cc3c(CN(C)C)c(O)ccc3nc2-1 + Nc1ccc(C#CCN(C(=O)Cc2ncc(C(F)(F)F)cc2C(F)(F)F)c2ccc(F)cc2)nn1
- IC50 (second compound 0.0316 µM): 15.7 nM
- IC50 (second compound 0.1 µM): 15.8 nM
- IC50 (second compound 0.316 µM): 15 nM
- IC50 (second compound 1 µM): 15.6 nM
- IC50 (second compound 3.16 µM): 16.1 nM
- IC50 (second compound 10 µM): 17.2 nM
- viability, T/C (second compound 0.0316 µM, first compound 0.000316 µM): 105%
- viability, T/C (second compound 0.0316 µM, first compound 0.001 µM): 106%
- viability, T/C (second compound 0.0316 µM, first compound 0.00316 µM): 98.9%
- viability, T/C (second compound 0.0316 µM, first compound 0.01 µM): 73.7%
- viability, T/C (second compound 0.0316 µM, first compound 0.0316 µM): 13.2%
- viability, T/C (second compound 0.0316 µM, first compound 0.1 µM): 10.1%
- viability, T/C (second compound 0.1 µM, first compound 0.000316 µM): 107%
- viability, T/C (second compound 0.1 µM, first compound 0.001 µM): 104%
- viability, T/C (second compound 0.1 µM, first compound 0.00316 µM): 97.3%
- viability, T/C (second compound 0.1 µM, first compound 0.01 µM): 73.2%
- viability, T/C (second compound 0.1 µM, first compound 0.0316 µM): 14.2%
- viability, T/C (second compound 0.1 µM, first compound 0.1 µM): 10.4%
- viability, T/C (second compound 0.316 µM, first compound 0.000316 µM): 106%
- viability, T/C (second compound 0.316 µM, first compound 0.001 µM): 102%
- viability, T/C (second compound 0.316 µM, first compound 0.00316 µM): 107%
- viability, T/C (second compound 0.316 µM, first compound 0.01 µM): 71.2%
- viability, T/C (second compound 0.316 µM, first compound 0.0316 µM): 10.7%
- viability, T/C (second compound 0.316 µM, first compound 0.1 µM): 12.3%
- viability, T/C (second compound 1 µM, first compound 0.000316 µM): 111%
- viability, T/C (second compound 1 µM, first compound 0.001 µM): 110%
- viability, T/C (second compound 1 µM, first compound 0.00316 µM): 94.5%
- viability, T/C (second compound 1 µM, first compound 0.01 µM): 73.2%
- viability, T/C (second compound 1 µM, first compound 0.0316 µM): 13.2%
- viability, T/C (second compound 1 µM, first compound 0.1 µM): 12.3%
- viability, T/C (second compound 3.16 µM, first compound 0.000316 µM): 111%
- viability, T/C (second compound 3.16 µM, first compound 0.001 µM): 113%
- viability, T/C (second compound 3.16 µM, first compound 0.00316 µM): 98.7%
- viability, T/C (second compound 3.16 µM, first compound 0.01 µM): 76.5%
- viability, T/C (second compound 3.16 µM, first compound 0.0316 µM): 11.9%
- viability, T/C (second compound 3.16 µM, first compound 0.1 µM): 10.3%
- viability, T/C (second compound 10 µM, first compound 0.000316 µM): 122%
- viability, T/C (second compound 10 µM, first compound 0.001 µM): 110%
- viability, T/C (second compound 10 µM, first compound 0.00316 µM): 104%
- viability, T/C (second compound 10 µM, first compound 0.01 µM): 86.1%
- viability, T/C (second compound 10 µM, first compound 0.0316 µM): 8.55%
- viability, T/C (second compound 10 µM, first compound 0.1 µM): 9.22%
